Assay results as given in patent US20060189686A1, “Use of a combination of substances to prevent biofouling organisms” (priority 2005, published 2006).

What was measured:
algae = details: target protein lacking in algae; reference (6); cited from earlier work
barnacle cyprid larvae = experiment: Settling experiments with barnacle cyprid larvae (Example 1); type: in vivo; details: for Dead (%) / Free swimming (%) / Settled (%): counted after one week
Experimental: Barnacle cyprid larvae were incubated in filtered sea water with and without the tested substance.
(§1) Settling experiments were performed in order to evaluate the substances effect on settling rate of cyprid larvae. The barnacle cyprid larvae are reared in the laboratory. Approximately 20 cyprids were incubated in seawater in plastic hydrophobic Petri-dishes. Substances subjected for testing were added in different concentration and compared with controls. After one week the amount of settled, frees-swimming and dead larvae in the Petri dishes were counted.

Barnacle = experiment: Cyprid settling rate assay, single compounds and combinations (Example 2); type: in vivo; details: single substance
Experimental: as §1
(§2) Catemine 3 is combined with an effective anti-algae compound according to the invention, such as dichlofluanid (table 3), SeaNine™ (table 4), Irgarol™ (table 5) and Diuron™ (table 6). All the different brands are tested in combination with Catemine 3 for efficacy against both barnacles and algae with the two compounds together or separately. The assays that are be used are the cyprid settling rate assay and the algae germination test.

Enteromorpha = experiment: Algae spore germination test, Enteromorpha; type: in vivo; details: single substance
Experimental: The efficacy of algicides is usually tested by a spore germination test. Algae are collected from the field and grown in the laboratory. After induced sporulation the spores are added to test vials, with the test compound dissolved in pasteurized deep sea water, where they are allowed to settle in darkness for a couple of hours (2-3 h) to give an even distribution of settled spores in the vials. The water with test compound is then removed and culture medium is added. The spores are left to germinate under fluorescent lamps (50 μMm-2s-1 (PAR)), 16 h light, 8 h darkness, for 7 days in a culture medium, which was changed once a day.
as §2

Ulva = experiment: Algae spore germination test, Ulva; type: in vivo; details: single substance
Experimental: The efficacy of algicides is usually tested by a spore germination test. Algae are collected from the field and grown in the laboratory. […] The water with test compound is then removed and culture medium is added. The spores are left to germinate under fluorescent lamps (50 μMm-2s-1 (PAR)), 16 h light, 8 h darkness, for 7 days in a culture medium, which was changed once a day. […]

SMILES | Dead (%) (barnacle cyprid larvae; 100 pM in seawater) | Free swimming (%) (barnacle cyprid larvae; 100 pM in seawater) | Settled (%) (barnacle cyprid larvae; 100 pM in seawater) | Dead (%) (barnacle cyprid larvae; 1 nM in seawater) | Free swimming (%) (barnacle cyprid larvae; 1 nM in seawater) | Settled (%) (barnacle cyprid larvae; 1 nM in seawater) | Dead (%) (barnacle cyprid larvae; 10 nM in seawater) | Free swimming (%) (barnacle cyprid larvae; 10 nM in seawater) | Settled (%) (barnacle cyprid larvae; 10 nM in seawater) | Dead (%) (barnacle cyprid larvae; 100 nM in seawater) | Free swimming (%) (barnacle cyprid larvae; 100 nM in seawater) | Settled (%) (barnacle cyprid larvae; 100 nM in seawater) | Dead (%) (barnacle cyprid larvae; 1 μM in seawater) | Free swimming (%) (barnacle cyprid larvae; 1 μM in seawater) | Settled (%) (barnacle cyprid larvae; 1 μM in seawater) | Barnacle biofouling (% settlement) (Barnacle; 0.1 nM) | Barnacle biofouling (% settlement) (Barnacle; 1 nM) | Barnacle biofouling (% settlement) (Barnacle; 10 nM) | Barnacle biofouling (% settlement) (Barnacle; 100 nM) | Enteromorpha biofouling (% survival) (Enteromorpha; 0.1 nM) | also measured
Cc1cccc(C(C)c2c[nH]cn2)c1C (racemic) [Catemine 1, (+/−)-4-[1-(2,3-dimethylphenyl)ethyl]-1H-imidazole] | 0% | 48% | 52% | 0% | 98% | 2% | 0% | 100% | 0% | 0% | 100% | 0% | 0% | 100% | 0% | – | – | – | – | – | Effect on algal growth (algae): no effect of algal growth
NC1=N[C@]2(CCc3cccc(Cl)c3C2)CO1 [Catemine 3, (S)-spiro[(1-oxa-2-amino-3-azacyclopent-2-ene)-4,29-(89-chloro-19,29,39,49 tetrahydronaphthalene)]] | 5% | 93% | 2% | 3% | 97% | 0% | 0% | 95% | 3% | 0% | 100% | 0% | 0% | 100% | 0% | 10% | 0% | 0% | 0% | 100% | Dead (%) (barnacle cyprid larvae; 10 pM in seawater): 0%; Free swimming (%) (barnacle cyprid larvae; 10 pM in seawater): 96%; Settled (%) (barnacle cyprid larvae; 10 pM in seawater): 4%; Dead (%) (barnacle cyprid larvae; 10 μM in seawater): 2%; Free swimming (%) (barnacle cyprid larvae; 10 μM in seawater): 98%; Settled (%) (barnacle cyprid larvae; 10 μM in seawater): 0%; Dead (%) (barnacle cyprid larvae; 100 μM in seawater): 100%; Free swimming (%) (barnacle cyprid larvae; 100 μM in seawater): 0%; Settled (%) (barnacle cyprid larvae; 100 μM in seawater): 0%; Decrease in concentration needed for settlement inhibition compared to Catemine 1 (barnacle cyprid larvae; compared to Catemine 1): 100-fold decrease in concentration needed for settlement inhibition.; Potency comparison of antisettling activity (barnacle cyprid larvae; comparison of Tables 1 and 2): more potent than Catemine 1; Enteromorpha biofouling (% survival) (Enteromorpha; 1 nM): 100%; Enteromorpha biofouling (% survival) (Enteromorpha; 10 nM): 100%; Enteromorpha biofouling (% survival) (Enteromorpha; 100 nM): 100%; Ulva biofouling (% survival) (Ulva; 0.1 nM): 100%; Ulva biofouling (% survival) (Ulva; 1 nM): 100%; Ulva biofouling (% survival) (Ulva; 10 nM): 100%; Ulva biofouling (% survival) (Ulva; 100 nM): 100%
CN(C)S(=O)(=O)N(SC(F)(Cl)Cl)c1ccccc1 [Dichlofluanid, N′-dimethyl-N-phenylsulphamide] | – | – | – | – | – | – | – | – | – | – | – | – | – | – | – | – | – | – | – | – | Barnacle biofouling (% settlement) (Barnacle; 0.1 μg/ml): 100%; Barnacle biofouling (% settlement) (Barnacle; 1 μg/ml): 50%; Barnacle biofouling (% settlement) (Barnacle; 10 μg/ml): 25%; Barnacle biofouling (% settlement) (Barnacle; 100 μg/ml): 0%; Ulva biofouling (% survival) (Ulva; 0.1 μg/ml): 100%; Ulva biofouling (% survival) (Ulva; 1 μg/ml): 90%; Ulva biofouling (% survival) (Ulva; 10 μg/ml): 10%; Ulva biofouling (% survival) (Ulva; 100 μg/ml): 0%
CN(C)C(=O)Nc1ccc(Cl)c(Cl)c1 [Diuron, 3-(3,4-dichlorophenyl)1,1-dimethylurea] | – | – | – | – | – | – | – | – | – | – | – | – | – | – | – | – | – | – | – | – | Barnacle biofouling (% settlement) (Barnacle; 0.1 μM): 100%; Barnacle biofouling (% settlement) (Barnacle; 1 μM): 100%; Barnacle biofouling (% settlement) (Barnacle; 10 μM): 100%; Barnacle biofouling (% settlement) (Barnacle; 100 μM): 100%; Ulva biofouling (% survival) (Ulva; 0.1 μM): 100%; Ulva biofouling (% survival) (Ulva; 1 μM): 90%; Ulva biofouling (% survival) (Ulva; 10 μM): 50%; Ulva biofouling (% survival) (Ulva; 100 μM): 0%
CSc1nc(NC2CC2)nc(NC(C)(C)C)n1 [Irgarol, 2-methylthio-4-tert-butylamino-6-cyclopropylamino-s-triazine] | – | – | – | – | – | – | – | – | – | – | – | – | – | – | – | 100% | 100% | 100% | 100% | 100% | Enteromorpha biofouling (% survival) (Enteromorpha; 1 nM): 100%; Enteromorpha biofouling (% survival) (Enteromorpha; 10 nM): 50%; Enteromorpha biofouling (% survival) (Enteromorpha; 100 nM): 0%
CCCCCCCCn1sc(Cl)c(Cl)c1=O [SeaNine, 4,5-dichloro-2-n-octyl-3(2H)-isothiazolone] | – | – | – | – | – | – | – | – | – | – | – | – | – | – | – | 100% | 50% | 10% | 0% | – | Ulva biofouling (% survival) (Ulva; 0.1 nM): 100%; Ulva biofouling (% survival) (Ulva; 1 nM): 50%; Ulva biofouling (% survival) (Ulva; 10 nM): 10%; Ulva biofouling (% survival) (Ulva; 100 nM): 0%
